Reference: US20230255906A1, “Targeting Serpin B9 in Cancer” (The Brigham and Women`s Hospital, Inc., priority 2020, published 2023)

Tested on: B16 melanoma cells
Assay: Caspase-3 activity assay (EnzChek Caspase-3 Assay Kit), caspase-3 induction in tumor cells; further: test concentration or dose not given here
Type: cell-based, mouse
Details: for Caspase-3 induction, Normalized to Formula (III) (%): relative to compound of Formula (III)
Text: The EnzChek® Caspase-3 Assay Kit was used to detect apoptosis by assaying for increases in caspase-3 activities. The basis for the assay was rhodamine 110 bis-(N-CBZ-L-aspartyl-L-glutamyl-L-valyl-L-aspartic acid amide) (Z-DEVD-R110). This substrate is a bisamide derivative of rhodamine 110 (R110) containing DEVD peptides covalently linked to each of R110's amino groups, thereby suppressing the dye's visible absorption and its fluorescence. Upon enzymatic cleavage, the nonfluorescent bisamide substrate is converted in a two-step process first to a fluorescent monoamide and then to an even more fluorescent R110.
At least 1×10^6 cells of the lysate were used for each reaction. B16 cells were treated with compounds to induce apoptosis. A negative control was prepared by incubating cells in the absence of compounds. The cells were incubated with compounds for 24 hrs and washed in PBS. Each cell sample or control was resuspended in 50 μL of the 1×cell lysis buffer. Cells were lysed by incubating on ice for 30 minutes, and the lysed cells were centrifuged to pellet the cellular debris. 50 μL of the supernatant was transferred from each sample to individual microplate wells. 50 μL of the 1× cell lysis buffer was used as a no-enzyme control to determine the background fluorescence of the substrate. 50 μL of the 2×substrate working solution was added to each sample and control. The microplate was covered, and the samples were incubated at room temperature for approximately 30 minutes. The fluorescence was measured by a fluorescence microplate reader (excitation/emission ˜496/520 nm) using excitation and emission filters.
The ability of this small molecule inhibitor to inhibit intracellular Sb9 was then evaluated. As a marker for cell penetration, the induction of caspase-3 activity in B16 melanoma cells as a surrogate marker for increased GrB activity was measured.
The induction of caspase-3 activity in B16 melanoma cells as a surrogate marker for increased GrB activity was also measured for other small molecules (compounds of Formulas (V) and (VI) as described herein).

| Structure (SMILES) | Ratio of caspase-3 activity to Formula (III) | Caspase-3 induction, Normalized to Formula (III) (%) |
| --- | --- | --- |
| CCN(CCO)C(=O)c1ccc2oc(-c3ccc(C(F)(F)F)cc3)nc2c1 [N-ethyl-N-(2-hydroxyethyl)-2-[4-(trifluoromethyl)phenyl]-1,3-benzoxazole-5-carboxamide] | 0.1437 | – |
| CN(CCN1CCCCC1)C(=O)c1ccc2oc(-c3cccc(F)c3)nc2c1 [2-(3-fluorophenyl)-N-methyl-N-[2-(1-piperidinyl)ethyl]-1,3-benzoxazole-5-carboxamide] | 0.1405 | – |
| CCOC(=O)CC1CCCCN1C(=O)c1ccc2nc(-c3cccc(OC)c3)oc2c1 (centres unmarked) [ethyl (1-{[2-(3-methoxyphenyl)-1,3-benzoxazol-6-yl]carbonyl}-2-piperidinyl)acetate] | 0.1479 | – |
| COCCCNC(=O)c1cc(OC)c(O)c(OC)c1 [4-hydroxy-3,5-dimethoxy-N-(3-methoxypropyl)benzamide] | – | −23.5938 |
| Cc1nc2c(C(=O)NC3CCCC3)cccc2o1 [N-cyclopentyl-2-methyl-1,3-benzoxazole-4-carboxamide] | – | −30.2879 |
| CN(C)c1nc2c(C(=O)NC3CCCC3)cccc2o1 [N-cyclopentyl-2-(dimethylamino)-1,3-benzoxazole-4-carboxamide] | – | −20.9929 |
| COc1cc(C(=O)NCC2CCOCC2)ccc1OCCC(C)C [3-methoxy-4-(3-methylbutoxy)-N-[(oxan-4-yl)methyl]benzamide] | – | −31.8318 |
| CCOc1ccc(C(=O)NCCN(C)C)cc1O [N-[2-(dimethylamino)ethyl]-4-ethoxy-3-hydroxybenzamide] | – | −38.5237 |
| COCCCNC(=O)c1cccc2oc(C)nc12 [N-(3-methoxypropyl)-2-methyl-1,3-benzoxazole-4-carboxamide] | – | −70.4086 |
| CC(C)NC(=O)CCNC(=O)c1ccc2nc(-c3ccccc3)oc2c1 [3-[(2-phenyl-1,3-benzoxazol-6-yl)formamido]-N-(propan-2-yl)propanamide] | 1.371 | – |
| CO[C@H]1CN(C)C[C@@H]1NC(=O)c1ccc2oc(-c3cccc(F)c3)nc2c1 (relative stereo) [2-(3-fluorophenyl)-N-[(3S*,4S*)-4-methoxy-1-methylpyrrolidin-3-yl]-1,3-benzoxazole-5-carboxamide] | 0.08936 | – |
| CCN1CCN(C(=O)c2ccc3oc(-c4cccc(F)c4)nc3c2)CC1 [5-[(4-ethyl-1-piperazinyl)carbonyl]-2-(3-fluorophenyl)-1,3-benzoxazole] | 0.6541 | – |
| CCOC(=O)CCNC(=O)c1ccc2nc(-c3cccc(OC)c3)oc2c1 [ethyl N-{[2-(3-methoxyphenyl)-1,3-benzoxazol-6-yl]carbonyl}-beta-alaninate] | 0.1049 | – |
| CCN(C)C(=O)c1cccc2oc(N(C)C)nc12 [2-(dimethylamino)-N-ethyl-N-methyl-1,3-benzoxazole-4-carboxamide] | – | −25.6782 |
| CCOc1ccc(C(=O)NC2CCCC2)cc1O [N-cyclopentyl-4-ethoxy-3-hydroxybenzamide] | – | 4.1370 |
| CC1(C)CC(NC(=O)c2ccc3nc(-c4ccccc4)oc3c2)CO1 (centres unmarked) [N-(5,5-dimethyloxolan-3-yl)-2-phenyl-1,3-benzoxazole-6-carboxamide] | 0.09307 | – |
| CCN(C)C(=O)c1ccc2nc(C3CC3)oc2c1 [2-cyclopropyl-N-ethyl-N-methyl-1,3-benzoxazole-6-carboxamide] | – | 33.9690 |
| O=C(NCCO)c1ccc2oc(-c3ccc(C(F)(F)F)cc3)nc2c1 [N-(2-hydroxyethyl)-2-[4-(trifluoromethyl)phenyl]-1,3-benzoxazole-5-carboxamide] | 0.3843 | – |

| Structure (SMILES) | Ratio of caspase-3 activity to Formula (III) | Caspase-3 induction, Normalized to Formula (III) (%) |
| --- | --- | --- |
| CCOc1ccc(C(=O)NCCCOC)cc1O [4-ethoxy-3-hydroxy-N-(3-methoxypropyl)benzamide] | – | −35.6816 |
| COc1cc(C(=O)NCC2CCOC2)ccc1OC(C)C (centres unmarked) [3-methoxy-N-[(oxolan-3-yl)methyl]-4-(propan-2-yloxy)benzamide] | – | −2.673 |
| O=C(NCc1ccccc1)c1ccc2nc(C3CCCO3)oc2c1 (centres unmarked) [N-benzyl-2-(oxolan-2-yl)-1,3-benzoxazole-6-carboxamide] | – | −34.6335 |
| O=C(NC1CCCC1)c1ccc2nc(C3CCCCC3)oc2c1 [2-cyclohexyl-N-cyclopentyl-1,3-benzoxazole-6-carboxamide] | – | 26.2507 |
| CCN(C)C(=O)c1ccc2nc(S)oc2c1 [N-ethyl-N-methyl-2-sulfanyl-1,3-benzoxazole-6-carboxamide] | – | −6.201 |
| CCN(C)C(=O)c1ccc2oc(=O)[nH]c2c1 [N-ethyl-N-methyl-2-oxo-2,3-dihydro-1,3-benzoxazole-5-carboxamide] | – | −21.7056 |
| O=C(Cc1ccc2ocnc2c1)N1CCCC1 [2-(1,3-benzoxazol-5-yl)-1-(pyrrolidin-1-yl)ethan-1-one] | – | 3.0541 |
| COc1cc(C(=O)NCc2ccccc2)cc(OC)c1O [N-benzyl-4-hydroxy-3,5-dimethoxybenzamide] | – | −17.7065 |
| O=C(NCc1ccccc1)c1ccc2nc(-c3cc(Cl)cc(Cl)c3)oc2c1 [N-benzyl-2-(3,5-dichlorophenyl)-1,3-benzoxazole-6-carboxamide] | – | −36.0528 |
| CCc1ccc(CN(C)C(=O)c2ccc3oc(-c4cccc(F)c4)nc3c2)nc1 [N-[(5-ethyl-2-pyridinyl)methyl]-2-(3-fluorophenyl)-N-methyl-1,3-benzoxazole-5-carboxamide] | 0.1324 | – |
| COc1cc(Br)c(C(=O)NC2CCCC2)cc1OC [2-bromo-N-cyclopentyl-4,5-dimethoxybenzamide] | – | −49.8913 |
| COc1cc(Br)c(C(=O)NCC2CCOC2)cc1OC (centres unmarked) [2-bromo-4,5-dimethoxy-N-[(oxolan-3-yl)methyl]benzamide] | – | −2.142 |
| COCC1CCN(C(=O)c2ccc3oc(-c4ccc(C(F)(F)F)cc4)nc3c2)C1 (centres unmarked) [5-{[3-(methoxymethyl)-1-pyrrolidinyl]carbonyl}-2-[4-(trifluoromethyl)phenyl]-1,3-benzoxazole] | 0.1424 | – |
| CN(C)c1nc2cccc(C(=O)NC3CCCC3)c2o1 [N-cyclopentyl-2-(dimethylamino)-1,3-benzoxazole-7-carboxamide] | – | −47.699 |
| O=C(c1ccc2nc(-c3ccccc3)oc2c1)N1CCC(O)CC1 [1-(2-phenyl-1,3-benzoxazole-6-carbonyl)piperidin-4-ol] | 1.327 | – |
| O=C(NCCn1cccn1)c1ccc2oc(-c3cccc(F)c3)nc2c1 [2-(3-fluorophenyl)-N-[2-(1H-pyrazol-1-yl)ethyl]-1,3-benzoxazole-5-carboxamide] | 0.4693 | – |
| CC(C)N(Cc1nccn1C)C(=O)c1ccc2oc(-c3cccc(F)c3)nc2c1 [2-(3-fluorophenyl)-N-isopropyl-N-[(1-methyl-1H-imidazol-2-yl)methyl]-1,3-benzoxazole-5-carboxamide] | 1.634 | – |
